Values joined by “and” are separate entries in the source; they are usually repeats but may differ in a detail not shown here. Equal entries are not always repeated. Inconclusive results and toxic doses are left out. Cut-off read from the data, not from the text of the source: active = T/C of 150% or more; inactive = T/C below 125%.
Test system: L1210 leukemia ip in BDF1 mice, survival T/C
Assay: NCI In Vivo Anticancer Drug Screen. Data for tumor model L1210 Leukemia (intraperitoneal) in B6D2F1 (BDF1) mice
Details: endpoint: mean survival time, higher = longer survival
How it was run: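 In this screen, tumor-bearing mice given compound are compared to those given vehicle, and their survival values are reported as a treated-to-control quotient.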

[1] = dose: 100.0 mg/kg/injection, schedule: Q04DX002 (ip), vehicle: saline with Tween-80
[2] = dose: 200.0 mg/kg/injection, schedule: Q04DX002 (ip), vehicle: saline with Tween-80
[3] = dose: 400.0 mg/kg/injection, schedule: Q04DX002 (ip), vehicle: saline with Tween-80
[4] = dose: 50.0 mg/kg/injection, schedule: Q01DX009 (ip), vehicle: saline with Tween-80
[5] = dose: 100.0 mg/kg/injection, schedule: Q01DX009 (ip), vehicle: saline with Tween-80
[6] = dose: 100.0 mg/kg/injection, schedule: Q04DX003 (ip), vehicle: saline with Tween-80
[7] = dose: 200.0 mg/kg/injection, schedule: Q04DX003 (ip), vehicle: saline with Tween-80
[8] = dose: 200.0 mg/kg/injection, schedule: Q01DX009 (ip), vehicle: saline with Tween-80
[9] = dose: 400.0 mg/kg/injection, schedule: Q01DX009 (ip), vehicle: saline with Tween-80
[10] = dose: 100.0 mg/kg/injection, schedule: Q01DX001 (ip), vehicle: Klucel (hydroxypropylcellulose) (HPC)
[11] = dose: 200.0 mg/kg/injection, schedule: Q01DX001 (ip), vehicle: Klucel (hydroxypropylcellulose) (HPC)
[12] = dose: 400.0 mg/kg/injection, schedule: Q01DX001 (ip), vehicle: Klucel (hydroxypropylcellulose) (HPC)
[13] = dose: 400.0 mg/kg/injection, schedule: Q04DX003 (ip), vehicle: saline with Tween-80
[14] = dose: 100.0 mg/kg/injection, schedule: Q04DX003 (ip), vehicle: saline
[15] = dose: 100.0 mg/kg/injection, schedule: Q04DX003 (ip), vehicle: Klucel (hydroxypropylcellulose) (HPC)
[16] = dose: 100.0 mg/kg/injection, schedule: Q04DX002 (ip), vehicle: Klucel (hydroxypropylcellulose) (HPC)
[17] = dose: 200.0 mg/kg/injection, schedule: Q04DX002 (ip), vehicle: Klucel (hydroxypropylcellulose) (HPC)
[18] = dose: 400.0 mg/kg/injection, schedule: Q04DX002 (ip), vehicle: Klucel (hydroxypropylcellulose) (HPC)

Measured: T/C

O=C(Nc1ccc(NC2=NCCN2)cc1)c1cc(C(=O)Nc2ccc(NC3=NCCN3)cc2)cc([N+](=O)[O-])c1
inactive: dose: 1.87 mg/kg/injection, schedule: Q01DX Z (ip), vehicle: saline 113 % of control | dose: 3.75 mg/kg/injection, schedule: Q01DX Z (ip), vehicle: saline 109 % of control | dose: 7.5 mg/kg/injection, schedule: Q01DX Z (ip), vehicle: saline 115 % of control | dose: 15.0 mg/kg/injection, schedule: Q01DX Z (ip), vehicle: methylcellulose (MC) 94 % of control | dose: 15.0 mg/kg/injection, schedule: Q01DX Z (ip), vehicle: saline 105 % of control

S=c1nc[nH]c2c1ncn2CCc1ccccc1
inactive: dose: 50.0 mg/kg/injection, schedule: Q01DX001 (ip), vehicle: carboxymethylcellulose (CMC) 115 % of control | dose: 100.0 mg/kg/injection, schedule: Q01DX001 (ip), vehicle: carboxymethylcellulose (CMC) 101 % of control | dose: 200.0 mg/kg/injection, schedule: Q01DX001 (ip), vehicle: carboxymethylcellulose (CMC) 112 % of control | dose: 400.0 mg/kg/injection, schedule: Q01DX001 (ip), vehicle: carboxymethylcellulose (CMC) 95 % of control

CC(NC(=O)c1ccc(Cl)c(Cl)c1)c1ccc(-c2ccccc2)cc1 (centres undefined)
inactive: [1] 102 % of control | [2] 91 % of control | [3] 87 % of control

C=C(Cl)CNN1CCOCC1
inactive: dose: 25.0 mg/kg/injection, schedule: Q01DX009 (ip), vehicle: saline with Tween-80 96 % of control | dose: 25.0 mg/kg/injection, schedule: Q04DX003 (ip), vehicle: saline with Tween-80 95 % of control | [4] 98 % of control | dose: 50.0 mg/kg/injection, schedule: Q04DX003 (ip), vehicle: saline with Tween-80 97 % of control | [5] 114 % of control | [6] 98 % of control and 111 % of control | [7] 94 % of control

Cc1nc(N)sc1N=Nc1ccccc1Br
inactive: dose: 75.0 mg/kg/injection, schedule: Q01DX001 (ip), vehicle: saline 103 % of control | dose: 150.0 mg/kg/injection, schedule: Q01DX001 (ip), vehicle: saline 108 % of control

CC(=O)COc1cccc(Cl)c1Cl
inactive: [5] 98 % of control | [8] 95 % of control | [9] 101 % of control

c1ccc2c(c1)CCc1ccccc1N=N2
inactive: [10] 96 % of control | [11] 92 % of control | [12] 94 % of control

COC(=O)c1ccc(OC(=O)Nc2ccccc2[N+](=O)[O-])cc1
inactive: [5] 97 % of control and 101 % of control | [1] 104 % of control and 110 % of control | [6] 107 % of control | [8] 96 % of control and 92 % of control | [2] 103 % of control and 104 % of control | [7] 113 % of control | [3] 94 % of control | [13] 101 % of control

NC(N)=NN=C(c1ccccc1)c1ccccc1
inactive: dose: 15.0 mg/kg/injection, schedule: Q01DX Z (ip), vehicle: other 101 % of control | dose: 30.0 mg/kg/injection, schedule: Q01DX Z (ip), vehicle: other 98 % of control | dose: 60.0 mg/kg/injection, schedule: Q01DX Z (ip), vehicle: other 106 % of control

O=C1OC(=O)c2ccc3c4ccc5c6c(ccc(c7ccc1c2c73)c64)C(=O)OC5=O
inactive: [10] 97 % of control | [11] 97 % of control | [12] 95 % of control

OC1C2C3CCC(CC3)C2C(C2OCCO2)C2C3CCC(C3)C12 (centres undefined)
inactive: [4] 96 % of control | [5] 96 % of control | [8] 89 % of control

O=C1OC(/C=C/c2ccccc2)=NC/1=C\c1ccccc1O
inactive: [1] 92 % of control | [2] 92 % of control | [3] 89 % of control

NCCC1CNCCN1.[Cl][Pd]([Cl])([Cl])[Cl] (centres undefined)
inactive: dose: 12.5 mg/kg/injection, schedule: Q01DX001 (ip), vehicle: saline 108 % of control | dose: 25.0 mg/kg/injection, schedule: Q01DX001 (ip), vehicle: saline 108 % of control | dose: 50.0 mg/kg/injection, schedule: Q01DX001 (ip), vehicle: saline 103 % of control | dose: 100.0 mg/kg/injection, schedule: Q01DX001 (ip), vehicle: DMSO 98 % of control

CCCCCC[N+](C)(C)CCOC(=O)C1C2CC3OC(=O)C1C3C2 (centres undefined)
inactive: [14] 97 % of control

CCC(CC)NCC(C)OC(=O)c1ccc([N+](=O)[O-])cc1 (centres undefined)
inactive: dose: 75.0 mg/kg/injection, schedule: Q01DX001 (ip), vehicle: carboxymethylcellulose (CMC) 96 % of control | dose: 150.0 mg/kg/injection, schedule: Q01DX001 (ip), vehicle: carboxymethylcellulose (CMC) 105 % of control | dose: 300.0 mg/kg/injection, schedule: Q01DX001 (ip), vehicle: carboxymethylcellulose (CMC) 97 % of control

Cc1nc2ccc(N=Cc3ccc(N(CCCl)CCCl)cc3)cc2[nH]1
inactive: [15] 102 % of control | dose: 200.0 mg/kg/injection, schedule: Q04DX003 (ip), vehicle: Klucel (hydroxypropylcellulose) (HPC) 98 % of control | dose: 400.0 mg/kg/injection, schedule: Q04DX003 (ip), vehicle: Klucel (hydroxypropylcellulose) (HPC) 104 % of control

Cc1ccc(S(=O)(=O)NC(CCl)=NCc2ccccc2)cc1
inactive: [16] 96 % of control | [17] 100 % of control | [18] 114 % of control

O=C1C2ON=C(c3ccccc3)C2C(=O)N1OS(=O)(=O)c1ccccc1 (centres undefined)
inactive: [5] 98 % of control | [6] 103 % of control | [8] 92 % of control | [7] 102 % of control | [9] 88 % of control | [13] 90 % of control

O=C1CCC(C(=O)O)N1 (centres undefined)
inactive: [4] 94 % of control | [5] 94 % of control | [6] 97 % of control | [8] 86 % of control | [7] 91 % of control

O=S(=O)(Cc1cccc(Cl)c1)c1ccccc1
inactive: [16] 96 % of control | [17] 107 % of control | [18] 104 % of control

Cc1ccc(Cl)cc1N=Cc1cccc([N+](=O)[O-])c1
inactive: dose: 75.0 mg/kg/injection, schedule: Q04DX003 (ip), vehicle: Klucel (hydroxypropylcellulose) (HPC) 96 % of control | [10] 100 % of control | dose: 150.0 mg/kg/injection, schedule: Q04DX003 (ip), vehicle: Klucel (hydroxypropylcellulose) (HPC) 93 % of control | [11] 97 % of control | dose: 300.0 mg/kg/injection, schedule: Q04DX003 (ip), vehicle: Klucel (hydroxypropylcellulose) (HPC) 93 % of control | [12] 101 % of control

O=C(Cc1ccccc1)Nc1cc(C(F)(F)F)ccc1Cl
inactive: dose: 100.0 mg/kg/injection, schedule: Q04DX002 (ip), vehicle: saline 100 % of control | dose: 200.0 mg/kg/injection, schedule: Q04DX002 (ip), vehicle: saline 93 % of control | dose: 400.0 mg/kg/injection, schedule: Q04DX002 (ip), vehicle: saline 100 % of control

C[N+](C)(C)C1=CC=CC=C1.Br[Br-]Br
inactive: dose: 12.5 mg/kg/injection, schedule: Q01DX009 (ip), vehicle: other 98 % of control | dose: 12.5 mg/kg/injection, schedule: Q04DX003 (ip), vehicle: Klucel (hydroxypropylcellulose) (HPC) 102 % of control | dose: 25.0 mg/kg/injection, schedule: Q01DX009 (ip), vehicle: other 98 % of control | dose: 25.0 mg/kg/injection, schedule: Q01DX009 (ip), vehicle: saline 104 % of control | dose: 25.0 mg/kg/injection, schedule: Q04DX003 (ip), vehicle: Klucel (hydroxypropylcellulose) (HPC) 102 % of control | dose: 50.0 mg/kg/injection, schedule: Q01DX009 (ip), vehicle: other 95 % of control | dose: 50.0 mg/kg/injection, schedule: Q01DX009 (ip), vehicle: saline 105 % of control | dose: 50.0 mg/kg/injection, schedule: Q04DX003 (ip), vehicle: Klucel (hydroxypropylcellulose) (HPC) 101 % of control | [10] 101 % of control | [15] 104 % of control

CN(C)/C=N/n1cnnc1
inactive: [14] 94 % of control | dose: 200.0 mg/kg/injection, schedule: Q04DX003 (ip), vehicle: saline 98 % of control | dose: 400.0 mg/kg/injection, schedule: Q04DX003 (ip), vehicle: saline 102 % of control

O=C(Nc1ccccc1-c1ccc([N+](=O)[O-])cc1)c1cc(Cl)cc(Cl)c1
inactive: [6] 88 % of control | [7] 88 % of control

Source: PubChem BioAssay AID248 (DTP/NCI, 2004)
